# Data taken from ChEMBL document CHEMBL6134802, “A benzoxazolyl urea inhibits VraS and enhances antimicrobials against vancomycin intermediate-resistant Staphylococcus aureus” (Bioorg Med Chem Lett, 2025).
# The source made the active and inactive calls. The rule behind the calls is not given here.
# Legend:
# [1] = test system: Staphylococcus aureus; assay: Antibacterial activity against vancomycin-intermediate resistant Staphylococcus aureus Mu50 assessed as enhancement factor at 50 uM in presence of vancomycin (reference value: 4 ug/ml); assay type: functional
# [2] = test system: Staphylococcus aureus; assay: Antibacterial activity against vancomycin-intermediate resistant Staphylococcus aureus Mu50 assessed as enhancement factor at 50 uM in presence of oxacillin (reference value: 256 ug/ml); assay type: functional
# [3] = test system: Staphylococcus aureus; assay: Antibacterial activity against methicillin-resistant Staphylococcus aureus USA 300 assessed as enhancement factor at 50 uM in presence of Chloramphenicol (reference value: 2 ug/ml); assay type: functional
# [4] = test system: Staphylococcus aureus; assay: Antibacterial activity against methicillin-resistant Staphylococcus aureus USA 300 assessed as enhancement factor at 50 uM in presence of vancomycin (reference value: 2 ug/ml); assay type: functional
# [5] = test system: Staphylococcus aureus; assay: Antibacterial activity against methicillin-resistant Staphylococcus aureus BAA-1683 assessed as enhancement factor at 50 uM in presence of oxacillin (reference value: 32 ug/ml); assay type: functional
# [6] = test system: Staphylococcus aureus; assay: Synergistic antibacterial activity against vancomycin-intermediate resistant Staphylococcus aureus Mu50 assessed as microbial growth at 50 uM in presence of oxacillin at 2 to 4 ug/ml by checkerboard assay; assay type: functional, organism-based
# [7] = test system: Staphylococcus aureus; assay: Suppression of oxacillin-induced mecA gene transcription in vancomycin-intermediate resistant Staphylococcus aureus Mu50 assessed as decrease in mecA transcript level by RT-qPCR analysis; assay type: functional, organism-based
# [8] = test system: Staphylococcus aureus; assay: Antibacterial activity against vancomycin-intermediate resistant Staphylococcus aureus Mu50 assessed as fold reduction at 50 uM in presence of penicillin G; assay type: functional
# [9] = test system: Staphylococcus aureus; assay: Antibacterial activity against methicillin-resistant Staphylococcus aureus ATCC 33592 assessed as fold reduction at 50 uM in presence of vancomycin; assay type: functional
# [10] = test system: Staphylococcus aureus; assay: Antibacterial activity against vancomycin-intermediate resistant Staphylococcus aureus Mu50 assessed as enhancement factor at 50 uM in presence of penicillin G (reference value: 16 ug/ml); assay type: functional
# [11] = test system: Staphylococcus aureus; assay: Antibacterial activity against methicillin-resistant Staphylococcus aureus ATCC 33592 assessed as fold reduction at 50 uM in presence of oxacillin (reference value: 128 ug/ml); assay type: functional
# [12] = test system: Staphylococcus aureus; assay: Antibacterial activity against methicillin-resistant Staphylococcus aureus USA 300 assessed as enhancement factor at 50 uM in presence of penicillin G (reference value: 128 ug/ml); assay type: functional
# [13] = test system: Staphylococcus aureus; assay: Antibacterial activity against methicillin-resistant Staphylococcus aureus USA 300 assessed as fold reduction at 50 uM in presence of Chloramphenicol; assay type: functional
# [14] = Cytotoxicity against MDCK cells assessed as reduction in cell viability incubated for 24 hrs by MTT assay; assay type: toxicity, cell-based, Canis lupus familiaris; details: dog
# [15] = test system: Staphylococcus aureus; assay: Synergistic antibacterial activity against vancomycin-intermediate resistant Staphylococcus aureus Mu50 assessed as fractional inhibitory concentration index at […] in presence of vancomycin by checkerboard assay; assay type: functional
# [16] = test system: Staphylococcus aureus; assay: Suppression of oxacillin-induced pbp2 gene transcription in vancomycin-intermediate resistant Staphylococcus aureus Mu50 assessed as decrease in pbp2 transcript level by RT-qPCR analysis; assay type: functional, organism-based
# [17] = test system: Staphylococcus aureus; assay: Suppression of oxacillin-induced vraSR gene transcription in vancomycin-intermediate resistant Staphylococcus aureus Mu50 assessed as decrease in vraSR transcript level by RT-qPCR analysis; assay type: functional, organism-based
# [18] = test system: Staphylococcus aureus; assay: Suppression of vancomycin-induced vraSR gene transcription in vancomycin-intermediate resistant Staphylococcus aureus Mu50 assessed as decrease in vraSR transcript level by RT-qPCR analysis; assay type: functional, organism-based
# [19] = test system: Staphylococcus aureus; assay: Antibacterial activity against vancomycin-intermediate resistant Staphylococcus aureus Mu50 assessed as fold reduction at 50 uM in presence of vancomycin; assay type: functional
# [20] = test system: Staphylococcus aureus; assay: Antibacterial activity against methicillin-resistant Staphylococcus aureus BAA-2094 assessed as enhancement factor at 50 uM in presence of oxacillin (reference value: 8 to 16 ug/ml); assay type: functional
# [21] = test system: Staphylococcus aureus; assay: Suppression of vancomycin-induced mecA gene transcription in vancomycin-intermediate resistant Staphylococcus aureus Mu50 assessed as decrease in mecA transcript level by RT-qPCR analysis; assay type: functional, organism-based
# [22] = test system: Staphylococcus aureus; assay: Antibacterial activity against methicillin-resistant Staphylococcus aureus BAA-1683 assessed as enhancement factor at 50 uM in presence of vancomycin (reference value: 2 ug/ml); assay type: functional
# [23] = test system: Staphylococcus aureus; assay: Synergistic antibacterial activity against vancomycin-intermediate resistant Staphylococcus aureus Mu50 assessed as microbial growth at 50 uM in presence of penicillin G at 4 ug/ml by checkerboard assay; assay type: functional, organism-based
# [24] = test system: Staphylococcus aureus; assay: Antibacterial activity against methicillin-resistant Staphylococcus aureus BAA 42 assessed as enhancement factor at 50 uM in presence of oxacillin (reference value: 64 ug/ml); assay type: functional
# [25] = molecular target: T1, Sensor protein VraS (Staphylococcus aureus (strain N315), UniProt Q99SZ7); assay: Inhibition of GST tagged VraS ATPase activity in vancomycin-intermediate resistant Staphylococcus aureus by kinase-coupled assay
# T1 sequence (Q99SZ7 whole entry): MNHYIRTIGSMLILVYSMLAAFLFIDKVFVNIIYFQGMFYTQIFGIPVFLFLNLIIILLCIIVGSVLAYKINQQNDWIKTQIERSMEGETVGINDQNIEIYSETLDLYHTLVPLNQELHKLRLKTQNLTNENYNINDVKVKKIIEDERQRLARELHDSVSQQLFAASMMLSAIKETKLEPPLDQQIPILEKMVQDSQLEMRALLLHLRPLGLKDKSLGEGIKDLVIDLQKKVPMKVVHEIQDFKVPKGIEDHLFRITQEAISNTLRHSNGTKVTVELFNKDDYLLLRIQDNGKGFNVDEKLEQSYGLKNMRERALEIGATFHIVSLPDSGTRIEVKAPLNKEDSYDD
# [26] = test system: Staphylococcus aureus; assay: Synergistic antibacterial activity against vancomycin-intermediate resistant Staphylococcus aureus Mu50 assessed as microbial growth at 50 uM in presence of vancomycin at 0.125 ug/ml by checkerboard assay; assay type: functional, organism-based
# [27] = test system: Staphylococcus aureus; assay: Antibacterial activity against methicillin-resistant Staphylococcus aureus BAA-2094 assessed as enhancement factor at 50 uM in presence of vancomycin (reference value: 2 ug/ml); assay type: functional
# [28] = test system: Staphylococcus aureus; assay: Antibacterial activity against methicillin-resistant Staphylococcus aureus BAA 41 assessed as enhancement factor at 50 uM in presence of oxacillin (reference value: 256 ug/ml); assay type: functional
# [29] = test system: Staphylococcus aureus; assay: Suppression of vancomycin-induced pbp2 gene transcription in vancomycin-intermediate resistant Staphylococcus aureus Mu50 assessed as decrease in pbp2 transcript level by RT-qPCR analysis; assay type: functional, organism-based
# [30] = test system: Staphylococcus aureus; assay: Antibacterial activity against methicillin-resistant Staphylococcus aureus BAA 42 assessed as enhancement factor at 50 uM in presence of vancomycin (reference value: 1 ug/ml); assay type: functional
# [31] = test system: Staphylococcus aureus; assay: Synergistic antibacterial activity against vancomycin-intermediate resistant Staphylococcus aureus Mu50 assessed as fractional inhibitory concentration index at >400 times MIC in presence of penicillin G by checkerboard assay; assay type: functional
# [32] = test system: Staphylococcus aureus; assay: Antibacterial activity against methicillin-resistant Staphylococcus aureus USA 300(BAA-1556) assessed as fold reduction in presence of vancomycin; assay type: functional
# [33] = test system: Staphylococcus aureus; assay: Antibacterial activity against methicillin-resistant Staphylococcus aureus ATCC 33592 assessed as enhancement factor at 50 uM in presence of vancomycin (reference value: 2 ug/ml); assay type: functional
# [34] = test system: Staphylococcus aureus; assay: Antibacterial activity against vancomycin-intermediate resistant Staphylococcus aureus Mu50 assessed as enhancement factor at 50 uM in presence of Chloramphenicol (reference value: 16 ug/ml); assay type: functional
# [35] = test system: Staphylococcus aureus; assay: Synergistic antibacterial activity against vancomycin-intermediate resistant Staphylococcus aureus Mu50 assessed as fractional inhibitory concentration index at >400 times MIC in presence of oxacillin by checkerboard assay; assay type: functional
# [36] = test system: Staphylococcus aureus; assay: Antibacterial activity against methicillin-resistant Staphylococcus aureus USA 300 assessed as enhancement factor at 50 uM in presence of oxacillin (reference value: 16 ug/ml); assay type: functional
# [37] = test system: Staphylococcus aureus; assay: Antibacterial activity against methicillin-resistant Staphylococcus aureus USA 300 assessed as fold reduction at 50 uM in presence of vancomycin; assay type: functional
# [38] = test system: Staphylococcus aureus; assay: Antibacterial activity against vancomycin-intermediate resistant Staphylococcus aureus Mu50 assessed as fold reduction at 50 uM in presence of oxacillin; assay type: functional
# [39] = test system: Staphylococcus aureus; assay: Antibacterial activity against methicillin-resistant Staphylococcus aureus ATCC 33592 assessed as enhancement factor at 50 uM in presence of oxacillin (reference value: 128 ug/ml); assay type: functional
# [40] = molecular target: T2, Sensor protein VraS (Staphylococcus aureus (strain N315)) (UniProt Q99SZ7); assay: Inhibition of GST tagged VraS ATPase activity in vancomycin-intermediate resistant Staphylococcus aureus assessed as residual activity at 0.1 to 300 uM by kinase-coupled assay relative to control; details: dose 0.1-300 µM
# T2 sequence (whole entry): T1 sequence (Q99SZ7 whole entry)
# [41] = test system: Staphylococcus aureus; assay: Antibacterial activity against methicillin-resistant Staphylococcus aureus BAA 41 assessed as enhancement factor at 50 uM in presence of vancomycin (reference value: 2 ug/ml); assay type: functional
structure (smiles),measurement,setting,value
Cc1ccnc(C(NC(=O)Nc2ccc3c(c2)OCC(=O)N3C)C2CC2)c1 (stereo not given),MIC,[1],4 µg/mL
same,MIC,[2],256 µg/mL
Cc1ccnc(C(NC(=O)Nc2ccc3nnn(C)c3c2)C2CC2)c1 (stereo not given),MIC,[1],4 µg/mL
same,MIC,[2],256 µg/mL
CCSc1nc2ccc(NC(=O)NC(c3cc(C)ccn3)C3CC3)cc2o1 (stereo not given),MIC,[3],0.25 µg/mL
same,MIC,[4],0.5 µg/mL
same,MIC,[5],< 2 µg/mL
same,Activity,[6],Active
same,Activity,[7],Active
same,fold change (FC),[8],4
same,MIC,[1],0.25 µg/mL
same,fold change (FC),[9],~4
same,MIC,[10],4 µg/mL
same,fold change (FC),[11],16
same,MIC,[12],128 µg/mL
same,fold change (FC),[13],4
same,IC50 at 24 h,[14],> 100000 nM
same,fractional inhibitory concentration index (FICI),[15],<0.12
same,Activity,[16],Active
same,Activity,[17],Active
same,Activity,[18],Active
same,fold change (FC),[19],16
same,MIC,[20],< 2 µg/mL
same,MIC,[2],8 µg/mL
same,Activity,[21],Active
same,MIC,[22],0.5 µg/mL
same,Activity,[23],Active
same,MIC,[24],< 2 µg/mL
same,IC50,[25],940 nM
same,Activity,[26],Active
same,MIC,[27],0.5 µg/mL
same,MIC,[28],< 2 µg/mL
same,Activity,[29],Active
same,MIC,[30],< 0.25 µg/mL
same,fractional inhibitory concentration index (FICI),[31],<=0.31
same,fold change (FC),[32],4
same,MIC,[33],< 0.25 µg/mL
same,MIC,[34],16 µg/mL
same,fractional inhibitory concentration index (FICI),[35],<=0.31
same,MIC,[36],16 µg/mL
same,fold change (FC),[37],2
same,fold change (FC),[38],32
same,MIC,[39],< 2 µg/mL
same,Activity,[40],35%
same,MIC,[41],0.25 µg/mL
